Source: US9499570B2, “Boron containing small molecules” (priority 2010, dated 2016)

System: Schistosoma mansoni schistosomula
Assay: Schistosoma mansoni schistosomula phenotype screen in vitro
Conditions: First Set
Description: Puerto Rican isolates of S. mansoni using Biomphalaria glabrata snails and golden hamsters as intermediate and definitive hosts, respectively, were maintained and handled in the University of California-San Francisco Sandler Center for Tropical Medicine. Patent B. glabrata snails (6-8 weeks after exposure to 5-10 infectious miracidia) were induced to shed infective larvae (cercariae) under light stimulus into the surrounding water. Cercariae were washed in rounds of ice-cold water and concentrated through and over sieves of varying pore sizes. They were then mechanically sheared (separation of heads from tails) as described in Colley D G, et al. Exp Parasitol 1974, 35:44-51, in ice-cold Incomplete Medium 169 (as described in Basch P F. J Parasitol 1981, 67:179-185, minus FBS and antibiotics) by passing 15 times through a double headed 22-gauge syringe needle connected to two 10 mL syringes. The resulting cercarial heads (schistosomula) were separated from their tails by swirling in a petri dish. Concentrated schistosomula were added to a sterile 1.5 mL centrifuge tube and allowed to settle over ice. Schistosomula were transferred to a sterile environment and washed 4 times in Incomplete Medium 169 prior to plating.
Two sets of screening were performed. In the first set, compounds were screened against schistosomula and observations were made at 24 hours, 2 days, 3 days, 4 days, and 6 days. In the second set, compounds were screened against schistosomula with observations at 24 hours, 2 days, 3 days, and 4 days and adult worms at 7 hours, 24 hours, 4 days, and 6 days.
Plates contain 200 schistosomula/well in […] complete Basch medium and were maintained at 37° C. in a 5% CO2 atmosphere. All compounds were tested in duplicate with at least two experimental replicates. Compounds and control compounds were added to the plates using the Biomek FXp using 96-well disposable tips. Final concentration of DMSO in each well was 0.5%.
A semi-quantitative and controlled nomenclature for phenotypes that can arise as a result of compound insult to both schistosomula and adults was utilized (Abdulla M H, et al., PLoS Negl Trop Dis 2009, 3:e478). Phenotypes were recorded by visual inspection and on a flexible time basis but at least at 24 h and 4 day time-points in the case of large scale screening. […] To help eliminate bias, two screen analysts scored phenotypes ‘blind’ both to knowledge of the contents of each screening plate and the phenotypes scored by his/her colleague. Upon completing their individual assessments, each analyst's ‘hit sheet’ was then compared to derive a ‘consensus hit sheet’. Discrepancies in analysts' hit sheets were re-evaluated under the microscope to eventually make a consensus hit call.
Hyper-coiled and coiled represent a verbal description of the visual phenotype as compared to the DMSO control. The + and ++ and +++ means more of the phenotype which preceded it. The − means less of the phenotype which preceded it. Results

SMILES	Schistosomula phenotype day 6	Schistosomula phenotype day 3	Schistosomula phenotype 24 h	also measured
COCCNc1ccc(C#N)c(Oc2ccc3c(c2)COB3O)n1 [2-(1-Hydroxy-1,3-dihydro-benzo[c][1,2]oxaborol-5-yloxy)-6-(2-methoxy-ethylamino)-nicotinonitrile]	O+ R and Partial D (Partial D=partial killing of worm population)			
N#Cc1ccc(Oc2ccc3c(c2)COB3O)nc1OCC(F)F [2-(2,2-Difluoro-ethoxy)-6-(1-hydroxy-1,3-dihydro-benzo[c][1,2]oxaborol-5-yloxy)-nicotinonitrile]	R O+ and Partial D (Partial D=partial killing of worm population)	O+ and Deg-M (Deg-M=worms in morphological disarray but still living)		
N#Cc1ccc(Oc2ccc3c(c2)COB3O)nc1NCCOCc1ccccc1 [2-(2-Benzyloxy-ethylamino)-6-(1-hydroxy-1,3-dihydro-benzo[c][1,2]oxaborol-5-yloxy)-nicotinonitrile]	R O+ and Partial D (Partial D=partial killing of worm population)	O+ and Deg-M (Deg-M=worms in morphological disarray but still living)	O+ and some and deg-M	
Cl.N#Cc1ccc(Oc2ccc3c(c2)COB3O)c(OCc2ccccn2)c1 [2-((5-Cyano-2-(1-hydroxy-1,3-dihydrobenzo[c][1,2]oxaborol-5-yloxy)phenoxy)methyl)pyridine hydrochloride]				Schistosomula phenotype 24 h (hydrochloride): R (R=round) and O++; Schistosomula phenotype day 2 (hydrochloride): O+, and M−; Schistosomula phenotype day 4 (hydrochloride): O+, and Partial D (Partial D=partial killing of worm population); Schistosomula phenotype day 6 (hydrochloride): O+, and Partial and D, R
N#Cc1ccc(Oc2ccc3c(c2)COB3O)nc1NCc1ccccc1 [2-Benzylamino-6-(1-hydroxy-1,3-dihydro-benzo[c][1,2]oxaborol-5-yloxy)-nicotinonitrile]	R O and Partial D (Partial D=partial killing of worm population)		O++ and some and deg-M	
CCOc1nc(Oc2ccc3c(c2)COB3O)ccc1C#N [2-Ethoxy-6-(1-hydroxy-1,3-dihydro-benzo[c][1,2]oxaborol-5-yloxy)-nicotinonitrile]	O+ R and Partial D (Partial D=partial killing of worm population)	O+ and partial D		
N#Cc1ccc(Oc2ccc3c(c2)COB3O)c(OCC2CCCC2)c1 [3-(Cyclopentylmethoxy)-4-(1-hydroxy-1,3-dihydrobenzo[c][1,2]oxaborol-5-yloxy)benzonitrile]				Schistosomula phenotype day 4: R O− and Deg-M D
N#Cc1ccc(Oc2ccc3c(c2)COB3O)c(OC2CCCC2)c1 [3-(Cyclopentyloxy)-4-(1-hydroxy-1,3-dihydrobenzo[c][1,2]oxaborol-5-yloxy)benzonitrile]	R deg- and M D	O+ and Partial D (Partial D=partial killing of worm population)	O++ and deg-M	
N#Cc1ccc(Oc2ccc3c(c2)COB3O)c(OCC2CC2)c1 [3-(Cyclopropylmethoxy)-4-(1-hydroxy-1,3-dihydrobenzo[c][1,2]oxaborol-5-yloxy)benzonitrile]		O+ and partial D		
COCCOc1nccc(Oc2ccc3c(c2)COB3O)c1C#N [4-(1-Hydroxy-1,3-dihydro-benzo[c][1,2]oxaborol-5-yloxy)-2-(2-methoxyethoxy)-nicotinonitrile]	O+ R and Partial D (Partial D=partial killing of worm population)	O+ and some and partial D	R (R=round) and O+	
CC(C)OC(=O)c1ccc(Oc2ccc3c(c2)COB3O)c(F)c1 [5-(2-Fluoro-4-isopropyloxycarbonylphenoxy)-1-hydroxy-2,1-benzoxaborole]				Schistosomula phenotype day 4: O−, R
N#Cc1ccc(Oc2ccc3c(c2)COB3O)cc1C(F)(F)F [5-(4-Cyano-3-trifluoromethylphenoxy)-1,3-dihydro-1-hydroxy-2,1-benzoxaborole]	O, (O=overactive) and some and deg-m			Schistosomula phenotype day 2: O−, and deg-m−; Schistosomula phenotype day 4: O, (O=overactive) and some and deg-m
